Laboratory results: patent EP2601945A1 (Thomale, Jürgen, priority 2011, dated 2013)

Tested on: human cancer cell lines established from tumors (lung, bladder, testis)
Experiment: Co-application of cis-platin and DPH to cancer cell lines: apoptosis by Annexin V staining and FACS analysis
Assay type: cell-based
Conditions: cis-platin alone or in combination with DPH

Compound: CN(C)CCOC(c1ccccc1)c1ccccc1 [DPH, diphenhydramine]
- effect on the induction of apoptosis: no inhibitory effect
